system: Human immunodeficiency virus 1; assay: Antiviral activity against NNRTI-resistant HIV-1 harboring RT K103N mutant infected in human MT4 cells assessed as protection against virus-induced cytopathic effect incubated for 5 days by MTT assay; type: functional, organism-based; settings: Human immunodeficiency virus 1, MT4, 120 h

SMILES	EC50
Cc1cc(/C=C/C#N)cc(C)c1Oc1ccnc(Nc2ccc3scnc3c2)n1	6 nM
Cc1cc(/C=C/C#N)cc(C)c1Oc1ccnc(Nc2ccc3nncn3c2)n1	2 nM
Cn1c(Cn2ccc(C(F)(F)F)c(Oc3cc(Cl)cc(C#N)c3)c2=O)n[nH]c1=O [DORAVIRINE]	10 nM
Cc1cn([C@H]2C[C@H](N=[N+]=[N-])[C@@H](CO)O2)c(=O)[nH]c1=O [ZIDOVUDINE]	36 nM

system: Human immunodeficiency virus 1; assay: Antiviral activity against NNRTI-resistant HIV-1 harboring RT E138K mutant infected in human MT4 cells assessed as protection against virus-induced cytopathic effect incubated for 5 days by MTT assay; type: functional, organism-based; settings: Human immunodeficiency virus 1, MT4, 120 h

SMILES	EC50
Cc1cc(/C=C/C#N)cc(C)c1Oc1ccnc(Nc2ccc3scnc3c2)n1	17 nM
Cc1cc(/C=C/C#N)cc(C)c1Oc1ccnc(Nc2ccc3nncn3c2)n1	11 nM
Cn1c(Cn2ccc(C(F)(F)F)c(Oc3cc(Cl)cc(C#N)c3)c2=O)n[nH]c1=O [DORAVIRINE]	19 nM
Cc1cn([C@H]2C[C@H](N=[N+]=[N-])[C@@H](CO)O2)c(=O)[nH]c1=O [ZIDOVUDINE]	47 nM

system: Human immunodeficiency virus 1; assay: not given; type: functional, organism-based; settings: Human immunodeficiency virus 1, MT4, 120 h

SMILES	EC50
Cc1cc(/C=C/C#N)cc(C)c1Oc1ccnc(Nc2ccc3scnc3c2)n1	68 nM
Cc1cc(/C=C/C#N)cc(C)c1Oc1ccnc(Nc2ccc3nncn3c2)n1	32 nM
Cn1c(Cn2ccc(C(F)(F)F)c(Oc3cc(Cl)cc(C#N)c3)c2=O)n[nH]c1=O [DORAVIRINE]	17 nM
Cc1cn([C@H]2C[C@H](N=[N+]=[N-])[C@@H](CO)O2)c(=O)[nH]c1=O [ZIDOVUDINE]	41 nM

system: Human immunodeficiency virus 1; assay: Antiviral activity against NNRTI-resistant HIV-1 harboring RT L100I mutant infected in human MT4 cells assessed as protection against virus-induced cytopathic effect incubated for 5 days by MTT assay; type: functional, organism-based; settings: Human immunodeficiency virus 1, MT4, 120 h

SMILES	EC50
Cc1cc(/C=C/C#N)cc(C)c1Oc1ccnc(Nc2ccc3scnc3c2)n1	29 nM
Cc1cc(/C=C/C#N)cc(C)c1Oc1ccnc(Nc2ccc3nncn3c2)n1	9 nM
Cn1c(Cn2ccc(C(F)(F)F)c(Oc3cc(Cl)cc(C#N)c3)c2=O)n[nH]c1=O [DORAVIRINE]	8 nM
Cc1cn([C@H]2C[C@H](N=[N+]=[N-])[C@@H](CO)O2)c(=O)[nH]c1=O [ZIDOVUDINE]	14 nM

system: Human immunodeficiency virus 1; assay: not given; type: functional, organism-based; settings: Human immunodeficiency virus 1, MT4, 120 h; remark: another data set of the same source

SMILES	EC50
Cc1cc(/C=C/C#N)cc(C)c1Oc1ccnc(Nc2ccc3scnc3c2)n1	1370 nM
Cc1cc(/C=C/C#N)cc(C)c1Oc1ccnc(Nc2ccc3nncn3c2)n1	810 nM
Cn1c(Cn2ccc(C(F)(F)F)c(Oc3cc(Cl)cc(C#N)c3)c2=O)n[nH]c1=O [DORAVIRINE]	1710 nM
Cc1cn([C@H]2C[C@H](N=[N+]=[N-])[C@@H](CO)O2)c(=O)[nH]c1=O [ZIDOVUDINE]	40 nM

system: Human immunodeficiency virus 1; assay: not given; type: functional, organism-based; settings: Human immunodeficiency virus 1, RES056, MT4, 120 h

SMILES	EC50
Cc1cc(/C=C/C#N)cc(C)c1Oc1ccnc(Nc2ccc3scnc3c2)n1	950 nM
Cc1cc(/C=C/C#N)cc(C)c1Oc1ccnc(Nc2ccc3nsnc3c2)n1	560 nM
Cc1cc(/C=C/C#N)cc(C)c1Oc1ccnc(Nc2ccc3c(c2)OCO3)n1	2220 nM
Cc1cc(/C=C/C#N)cc(C)c1Oc1ccnc(Nc2ccc3nncn3c2)n1	350 nM
Cc1cc(/C=C/C#N)cc(C)c1Oc1ccnc(Nc2ccc3c(c2)C(=O)N(C)C3=O)n1	4670 nM
Cc1cc(/C=C/C#N)cc(C)c1Oc1ccnc(Nc2ccc3occc3c2)n1	8590 nM
Cn1c(Cn2ccc(C(F)(F)F)c(Oc3cc(Cl)cc(C#N)c3)c2=O)n[nH]c1=O [DORAVIRINE]	50 nM
Cc1cn([C@H]2C[C@H](N=[N+]=[N-])[C@@H](CO)O2)c(=O)[nH]c1=O [ZIDOVUDINE]	35 nM

system: Human immunodeficiency virus 1; assay: not given; type: functional, organism-based; settings: Human immunodeficiency virus 1, MT4, 120 h; remark: another data set of the same source

SMILES	EC50
Cc1cc(/C=C/C#N)cc(C)c1Oc1ccnc(Nc2ccc3scnc3c2)n1	1230 nM
Cc1cc(/C=C/C#N)cc(C)c1Oc1ccnc(Nc2ccc3nncn3c2)n1	580 nM
Cn1c(Cn2ccc(C(F)(F)F)c(Oc3cc(Cl)cc(C#N)c3)c2=O)n[nH]c1=O [DORAVIRINE]	22100 nM

system: not listed separately; assay: Cytotoxicity against human MT4 cells assessed as reduction in cell viability measured after 5 days by MTT assay; type: toxicity, cell-based; settings: time 5 day

SMILES	CC50 at 120 h
Cc1cc(/C=C/C#N)cc(C)c1Oc1ccnc(Nc2ccc3scnc3c2)n1	50200 nM
Cc1cc(/C=C/C#N)cc(C)c1Oc1ccnc(Nc2ccc3nsnc3c2)n1	20600 nM
Cc1cc(/C=C/C#N)cc(C)c1Oc1ccnc(Nc2ccc3c(c2)OCO3)n1	40800 nM
Cc1cc(/C=C/C#N)cc(C)c1Oc1ccnc(Nc2ccc3nncn3c2)n1	22000 nM
Cc1cc(/C=C/C#N)cc(C)c1Oc1ccnc(Nc2ccc3c(c2)C(=O)N(C)C3=O)n1	> 294000 nM
Cc1cc(/C=C/C#N)cc(C)c1Oc1ccnc(Nc2ccc3occc3c2)n1	216000 nM
Cn1c(Cn2ccc(C(F)(F)F)c(Oc3cc(Cl)cc(C#N)c3)c2=O)n[nH]c1=O [DORAVIRINE]	> 47000 nM
Cc1cn([C@H]2C[C@H](N=[N+]=[N-])[C@@H](CO)O2)c(=O)[nH]c1=O [ZIDOVUDINE]	> 7480 nM

system: Human immunodeficiency virus 2; assay: Antiviral activity against HIV-2 ROD infected in human MT4 cells assessed as protection against virus-induced cytopathic effect incubated for 5 days by MTT assay; type: functional, organism-based; settings: Human immunodeficiency virus 2, ROD, MT4, 120 h

SMILES	EC50
Cc1cc(/C=C/C#N)cc(C)c1Oc1ccnc(Nc2ccc3scnc3c2)n1	7040 nM
Cc1cc(/C=C/C#N)cc(C)c1Oc1ccnc(Nc2ccc3nsnc3c2)n1	1260 nM
Cc1cc(/C=C/C#N)cc(C)c1Oc1ccnc(Nc2ccc3c(c2)OCO3)n1	8200 nM
Cc1cc(/C=C/C#N)cc(C)c1Oc1ccnc(Nc2ccc3nncn3c2)n1	6140 nM
Cc1cc(/C=C/C#N)cc(C)c1Oc1ccnc(Nc2ccc3c(c2)C(=O)N(C)C3=O)n1	165000 nM
Cc1cc(/C=C/C#N)cc(C)c1Oc1ccnc(Nc2ccc3occc3c2)n1	45500 nM
Cn1c(Cn2ccc(C(F)(F)F)c(Oc3cc(Cl)cc(C#N)c3)c2=O)n[nH]c1=O [DORAVIRINE]	> 47000 nM
Cc1cn([C@H]2C[C@H](N=[N+]=[N-])[C@@H](CO)O2)c(=O)[nH]c1=O [ZIDOVUDINE]	39 nM

system: Human immunodeficiency virus 1; assay: Potency index, ratio of Zidovudine EC50 to test compound EC50 for antiviral activity against NNRTI-resistant HIV-1 harboring RT K103N mutant infected in human MT4 cells assessed as protection against virus-induced cytopathic effect incubated for 5 days by MTT assay; type: functional; settings: time 5 day

SMILES	Ratio EC50
Cc1cc(/C=C/C#N)cc(C)c1Oc1ccnc(Nc2ccc3nncn3c2)n1	19

system: Human immunodeficiency virus 1; assay: Potency index, ratio of Nevirapine EC50 to test compound EC50 for antiviral activity against NNRTI-resistant HIV-1 harboring RT K103N mutant infected in human MT4 cells assessed as protection against virus-induced cytopathic effect incubated for 5 days by MTT assay; type: functional; settings: time 5 day

SMILES	Ratio EC50
Cc1cc(/C=C/C#N)cc(C)c1Oc1ccnc(Nc2ccc3nncn3c2)n1	2747

system: Human immunodeficiency virus 1; assay: Potency index, ratio of Efavirenz EC50 to test compound EC50 for antiviral activity against NNRTI-resistant HIV-1 harboring RT K103N mutant infected in human MT4 cells assessed as protection against virus-induced cytopathic effect incubated for 5 days by MTT assay; type: functional; settings: time 5 day

SMILES	Ratio EC50
Cc1cc(/C=C/C#N)cc(C)c1Oc1ccnc(Nc2ccc3nncn3c2)n1	50

system: Human immunodeficiency virus 1; assay: Potency index, ratio of doravirine EC50 to test compound EC50 for antiviral activity against NNRTI-resistant HIV-1 harboring RT K103N mutant infected in human MT4 cells assessed as protection against virus-induced cytopathic effect incubated for 5 days by MTT assay; type: functional; settings: time 5 day

SMILES	Ratio EC50
Cc1cc(/C=C/C#N)cc(C)c1Oc1ccnc(Nc2ccc3nncn3c2)n1	5

target: Human immunodeficiency virus type 1 reverse transcriptase (Human immunodeficiency virus 1, UniProt Q72547); assay: Inhibition of wild type HIV-1 Reverse transcriptase incubated for 1 hrs by ELISA analysis; settings: not given

SMILES	IC50
Cc1cc(/C=C/C#N)cc(C)c1Oc1ccnc(Nc2ccc3scnc3c2)n1	43 nM
Cc1cc(/C=C/C#N)cc(C)c1Oc1ccnc(Nc2ccc3nsnc3c2)n1	37 nM
Cc1cc(/C=C/C#N)cc(C)c1Oc1ccnc(Nc2ccc3c(c2)OCO3)n1	26 nM
Cc1cc(/C=C/C#N)cc(C)c1Oc1ccnc(Nc2ccc3nncn3c2)n1	25 nM
Cc1cc(/C=C/C#N)cc(C)c1Oc1ccnc(Nc2ccc3c(c2)C(=O)N(C)C3=O)n1	54 nM
Cc1cc(/C=C/C#N)cc(C)c1Oc1ccnc(Nc2ccc3occc3c2)n1	55 nM
Cn1c(Cn2ccc(C(F)(F)F)c(Oc3cc(Cl)cc(C#N)c3)c2=O)n[nH]c1=O [DORAVIRINE]	30 nM

system: not listed separately; assay: in vitro; settings: human, MT4 cells
Description: Selectivity index, ratio of CC50 for human MT4 cells to EC50 for wild type HIV-1 IIIB infected in human MT4 cells

SMILES	selectivity ratio
Cc1cc(/C=C/C#N)cc(C)c1Oc1ccnc(Nc2ccc3scnc3c2)n1	26700
Cc1cc(/C=C/C#N)cc(C)c1Oc1ccnc(Nc2ccc3nsnc3c2)n1	2850
Cc1cc(/C=C/C#N)cc(C)c1Oc1ccnc(Nc2ccc3c(c2)OCO3)n1	5260
Cc1cc(/C=C/C#N)cc(C)c1Oc1ccnc(Nc2ccc3nncn3c2)n1	11500
Cc1cc(/C=C/C#N)cc(C)c1Oc1ccnc(Nc2ccc3c(c2)C(=O)N(C)C3=O)n1	> 52500
Cc1cc(/C=C/C#N)cc(C)c1Oc1ccnc(Nc2ccc3occc3c2)n1	31100
Cn1c(Cn2ccc(C(F)(F)F)c(Oc3cc(Cl)cc(C#N)c3)c2=O)n[nH]c1=O [DORAVIRINE]	> 6760
Cc1cn([C@H]2C[C@H](N=[N+]=[N-])[C@@H](CO)O2)c(=O)[nH]c1=O [ZIDOVUDINE]	> 186

system: not listed separately; assay: in vitro; settings: human, MT4 cells; remark: another data set of the same source
Description: Selectivity index, ratio of CC50 for human MT4 cells to EC50 for HIV-1 RES056 harboring RT K103N/Y181C mutant infected in human MT4 cells

SMILES	selectivity ratio
Cc1cc(/C=C/C#N)cc(C)c1Oc1ccnc(Nc2ccc3scnc3c2)n1	506
Cc1cc(/C=C/C#N)cc(C)c1Oc1ccnc(Nc2ccc3nsnc3c2)n1	37
Cc1cc(/C=C/C#N)cc(C)c1Oc1ccnc(Nc2ccc3c(c2)OCO3)n1	18
Cc1cc(/C=C/C#N)cc(C)c1Oc1ccnc(Nc2ccc3nncn3c2)n1	182
Cc1cc(/C=C/C#N)cc(C)c1Oc1ccnc(Nc2ccc3c(c2)C(=O)N(C)C3=O)n1	> 63
Cc1cc(/C=C/C#N)cc(C)c1Oc1ccnc(Nc2ccc3occc3c2)n1	25
Cn1c(Cn2ccc(C(F)(F)F)c(Oc3cc(Cl)cc(C#N)c3)c2=O)n[nH]c1=O [DORAVIRINE]	> 931
Cc1cn([C@H]2C[C@H](N=[N+]=[N-])[C@@H](CO)O2)c(=O)[nH]c1=O [ZIDOVUDINE]	> 215

system: not listed separately; assay: in vitro; settings: human, MT4 cells; remark: another data set of the same source
Description: Selectivity index, ratio of CC50 for human MT4 cells to EC50 for HIV-2 ROD infected in human MT4 cells

SMILES	selectivity ratio
Cc1cc(/C=C/C#N)cc(C)c1Oc1ccnc(Nc2ccc3scnc3c2)n1	7.13
Cc1cc(/C=C/C#N)cc(C)c1Oc1ccnc(Nc2ccc3nsnc3c2)n1	16.4
Cc1cc(/C=C/C#N)cc(C)c1Oc1ccnc(Nc2ccc3c(c2)OCO3)n1	4.98
Cc1cc(/C=C/C#N)cc(C)c1Oc1ccnc(Nc2ccc3c(c2)C(=O)N(C)C3=O)n1	> 1.78
Cc1cc(/C=C/C#N)cc(C)c1Oc1ccnc(Nc2ccc3occc3c2)n1	4.74
Cc1cn([C@H]2C[C@H](N=[N+]=[N-])[C@@H](CO)O2)c(=O)[nH]c1=O [ZIDOVUDINE]	> 192

system: Human immunodeficiency virus 1; assay: microbe, parasite or virus in culture; settings: Human immunodeficiency virus 1, IIIB, MT4, 120 h
Description: Antiviral activity against wild type HIV-1 IIIB infected in human MT4 cells assessed as protection against virus-induced cytopathic effect incubated for 5 days by MTT assay

SMILES	EC50
Cc1cc(/C=C/C#N)cc(C)c1Oc1ccnc(Nc2ccc3scnc3c2)n1	2 nM
Cc1cc(/C=C/C#N)cc(C)c1Oc1ccnc(Nc2ccc3nsnc3c2)n1	7 nM
Cc1cc(/C=C/C#N)cc(C)c1Oc1ccnc(Nc2ccc3c(c2)OCO3)n1	8 nM
Cc1cc(/C=C/C#N)cc(C)c1Oc1ccnc(Nc2ccc3nncn3c2)n1	2 nM
Cc1cc(/C=C/C#N)cc(C)c1Oc1ccnc(Nc2ccc3c(c2)C(=O)N(C)C3=O)n1	6 nM
Cc1cc(/C=C/C#N)cc(C)c1Oc1ccnc(Nc2ccc3occc3c2)n1	7 nM
Cn1c(Cn2ccc(C(F)(F)F)c(Oc3cc(Cl)cc(C#N)c3)c2=O)n[nH]c1=O [DORAVIRINE]	7 nM
Cc1cn([C@H]2C[C@H](N=[N+]=[N-])[C@@H](CO)O2)c(=O)[nH]c1=O [ZIDOVUDINE]	40 nM

Source: ChEMBL document CHEMBL6087416, “Discovery of novel fused-heterocycle-bearing diarypyrimidine derivatives as HIV-1 potent NNRTIs targeting tolerant region I for enhanced antiviral activity and resistance profile” (Eur J Med Chem, 2025)
